# In patent US8691851B2, “Lanthanide metal complexes useful in treating cancer” (National University of Singapore, priority 2009, dated 2014):
# Like-named read-outs stand apart in the source and are kept apart here.
# Assays:
# [1] = tested on: MDA-MB-231 breast cancer cells; conditions: high PPARγ expressing cells, 24 hours
# Experimental: (§1) To detect breast cancer cell death via cell viability assay, the mitochondrial activity, as an index of cell viability, was measured using the MTT method (Mosmann, T. J Immunol Methods, 1983; 65: 55-63). Briefly, cells were treated in triplicates in 96-well plate. After completion of the experimental period, 20 μl of MTT reagent (5 mg/ml) was added per well of culture (containing 100 μl treatment media). The reaction was allowed to proceed for 4 to 6 h at 37° C. SDS (10%) was then added (200 μl/well) overnight and the absorption at 595 nm measured.
# [2] = tested on: SHEP1 and SHSY5Y neuroblastoma cells; conditions: 24 hours
# Experimental: as §1
# SHEP1 cells = conditions: mPPARg PCMX versus empty vector, 0 to 5 uM
# Experimental: as §1
# T47D breast cancer cells = conditions: low PPARγ expressing cells, 24 hours
# Experimental: as §1
# [3] = target: T1, phosphorylation-defective mutant of PPARγ (GFP-PPARg S82A) (Mus musculus, UniProt P37238, S112A); experiment: 3×PPRE luciferase reporter with phosphorylation-defective mutant PPARγ; format: cell-based; conditions: SHSY5Y cells, 10 uM, 18 hours
# T1 construct: expressed in transfected cells; host or cells: SHSY5Y neuroblastoma cells
# T1 sequence (P37238 1-475 isoform P37238-2 S82A): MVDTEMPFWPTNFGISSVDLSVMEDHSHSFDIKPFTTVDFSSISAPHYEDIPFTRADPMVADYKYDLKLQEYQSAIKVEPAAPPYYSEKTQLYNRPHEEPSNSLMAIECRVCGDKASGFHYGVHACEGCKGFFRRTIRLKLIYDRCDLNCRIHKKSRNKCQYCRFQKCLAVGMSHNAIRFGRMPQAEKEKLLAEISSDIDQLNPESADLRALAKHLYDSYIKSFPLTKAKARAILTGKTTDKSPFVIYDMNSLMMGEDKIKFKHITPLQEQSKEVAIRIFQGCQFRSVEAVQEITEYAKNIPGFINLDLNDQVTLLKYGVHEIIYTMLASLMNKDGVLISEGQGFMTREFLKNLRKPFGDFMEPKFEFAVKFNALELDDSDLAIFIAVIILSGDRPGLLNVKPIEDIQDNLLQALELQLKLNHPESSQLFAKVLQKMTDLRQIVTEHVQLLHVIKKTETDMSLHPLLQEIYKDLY
# Experimental: SHSY5Y neuroblastoma cells were transiently co-transfected with either a plasmid encoding wild type PPARγ or a phosphorylation-defective mutant of PPARγ (GFP-PPARg S82A), 3×PPRE luciferase plasmid and plasmid encoding renilla for transfection efficiency. Forty eight hours following transfection, cells were exposed to 10 uM of C19H24N3O5S5Pr for 18 hours.
# PPARγ = conditions: SHEP1 cells, 0 to 5 uM, 18 hours
# Experimental: To determine if C19H24N3O5S5Pr binds to PPARγ, neuroblastoma SHEP1 cells were transiently co-transfected with either empty vector or a DNA-binding mutant of PPARγ, 3×PPPRE luciferase plasmid and renilla plasmid for transfection efficiency. Forty eight hours following transfection, the cells were exposed to increased concentration (0 to 5 uM) of C19H24N3O5S5Pr for 18 hours. PPARγ activity was calculated as luciferase RLU/renilla/μg total protein.
# PTEN and MnSOD mRNA = conditions: SHEP-1 cells, 10 uM, 4 hr, 8 hr and 18 h
# Experimental: This example illustrates the effect of C19H24N3O5S5Pr on the mRNA levels of PTEN and MnSOD in SHEP-1 cancer cells. mRNA levels of PTEN and MnSOD were assayed by real time PCR after treatment with 10 uM Pr-MPO for 4 hr, 8 hr and 18 h.
# pCMX-Gal-mPPARγ-LBD = target: T2, pCMX-Gal-mPPARγ-LBD (Mus musculus, UniProt P37238); experiment: Gal4 chimeric receptor luciferase reporter (Method 2); format: cell-based; conditions: SHEP-1 cells, 3 μM, 5 μM, 10 μM and 20 μM
# T2 construct: expressed in transfected cells; host or cells: SHEP-1 cells
# T2 sequence (P37238 238-503 limits assumed): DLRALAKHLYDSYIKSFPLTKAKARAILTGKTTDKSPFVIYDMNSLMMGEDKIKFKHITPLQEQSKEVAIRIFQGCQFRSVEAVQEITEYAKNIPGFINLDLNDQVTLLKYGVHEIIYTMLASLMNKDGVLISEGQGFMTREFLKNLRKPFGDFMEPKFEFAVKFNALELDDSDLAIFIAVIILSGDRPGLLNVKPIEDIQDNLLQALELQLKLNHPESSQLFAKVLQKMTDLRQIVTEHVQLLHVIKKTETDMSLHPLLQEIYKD
# Source text: In Method 2, SHEP-1 cancer cells were transfected with a reporter gene containing four copies of a Gal4 binding site (pMH100x4-TK-Luc) and chimeric receptors of a single PPAR isoform (pCMX-Gal-mPPARα-LBD, pCMX-Gal-mPPARδ-LBD, or pCMX-Gal-mPPARγ-LBD, respectively) as previously described in Kim et al, Toxicological Sciences, 85, (2005), pp. 585-593. When C19H24N3O5S5Pr binds to the ligand binding domain (LBD) of the chimeric receptor, the DNA binding domain of Gal4 binds to co-transfected Gal4 binding site and initiates transcription of the firefly luciferase.
# [4] = tested on: SHEP-1 and MDA-MB-231 cancer cells; experiment: Morphological changes of cancer cells; format: cell-based; conditions: SHEP-1 5 μM, MDA-MB-231 10 μM, compound alone
# [5] = tested on: HCT-116 colorectal tumor cells
# Experimental: HCT-116 colorectal tumor cells were grafted subcutaneously onto nude mice. Tumor-bearing mice were then treated with solvent control (water) or different concentrations of (100 μg, 200 μg) C19H24N3O5S5Pr on day 1, day 5, day 9, day 12, and day 15. Tumor volumes (mm^3) were measured on day 1, day 5, day 8, day 9, day 12, day 14 and day 16. Tumor volumes in treated mice were compared with those of control mice.
# Bax, cytochrome C = conditions: 5 μM and 10 μM
# caspases = conditions: cancer cells
compound,measurement,setting,value
"CS(C)=O.CS(C)=O.[O-][n+]1ccccc1[S-].[O-][n+]1ccccc1[S-].[O-][n+]1ccccc1[S-].[Pr+3] [C19H24N3O5S5Pr, praseodymium (2-mercaptopyridine N-oxide)(dimethylsulfoxide)]",cell viability (MTT),[1],inhibits growth
same,"cell viability (MTT), SHEP1 versus SHSY5Y cells",[2],has a greater growth of SHEP1 cells compared to SHSY5Y cells
same,cell viability on overexpression of wild type PPARγ,SHEP1 cells,greater decrease in cell viability
same,cell viability (MTT),T47D breast cancer cells,remained viable
same,activation of phosphorylation-defective mutant PPARγ versus wild type,[3],significant activation of phosphorylation-defective mutant PPARγ
same,PPARγ activation on overexpression of DNA-binding mutant PPARγ,PPARγ,significantly reduced the ability of C19H24N3O5S5Pr to activate PPARγ
same,mRNA levels of PTEN and MnSOD,PTEN and MnSOD mRNA,also found at the mRNA level
same,"luciferase activity, PPARγ LBD chimeric receptor",pCMX-Gal-mPPARγ-LBD,induction of luciferase activity
same,cell morphology,[4],rounded up and also lower in cell density
same,tumor size compared to control mice,"[5]; 100 μg or 200 μg on day 1, 5, 9, 12 and 15, measured to day 16",did not show a substantial increase in tumor size
same,tumor growth suppression/inhibition versus control mice,[5]; 200 μg,at least 3 fold
same,"tumor activity suppressed/inhibited, 200 μg versus 100 μg",[5]; dosage increased from 100 μg to 200 μg,at least 2 fold
same,Bax translocation,"Bax, cytochrome C; SHEP-1 cells, 18 hr and 24 hr",causes Bax translocation to the mitochondrial fraction
same,cytochrome C release,"Bax, cytochrome C; SHEP-1 cells, 18 hr and 24 hr",cytochrome C release into the cytosol
same,Bax translocation,"Bax, cytochrome C; SHSY5Y cells, 24 hr",causes Bax translocation to the mitochondrial fraction
same,cytochrome C release,"Bax, cytochrome C; SHSY5Y cells, 24 hr",cytochrome C release into the cytosol
same,caspase activation,caspases,does not activate caspases
